# Key:
# uterus = assay: Uterine horn weight gain after implantation of progestin-containing IUS (rod) in ovary-resected rats; format: in vivo, rat; details: IUS (rod) in right uterine horn, FIG. 1/4
# Procedure: (§1) The local uterine action of the progestin compared to systemic side effects (dissociation) was investigated on the basis of studies using rats. The uterus of ovary-resected rats responds to implantation of progestin-containing IUS (rods) with decidualization and weight gain. The local progestin effects were also determined on the basis of changes in gene expression.
# (§2) Ovary-resected female rats were treated with estradiol (E2) for three days (0.2 μg/day/animal, subcutaneous dosing). On day 4, an IUS (rod) was implanted into the right uterine horn of each animal. The left uterine horn remained untreated for internal comparison. Administration of E2 was continued with a daily dose of 0.1 μg/animal to ensure responsiveness of the uterus (maintaining progesterone-receptor expression) to progestins. Blood was taken for LH level measurements on days 4, 10 and 17.
# luteinizing hormone (LH) = assay: Serum LH level in ovary-resected rats carrying IUS (rod), as a sign of systemic effect; format: in vivo, rat; details: FIG. 2/4
# Procedure: Serum levels of luteinizing hormone (LH) are used for detecting systemic effects of the locally administered progestin. Basal serum-LH levels of ovary-resected rats are elevated compared to the LH levels of intact control animals. Undesired systemic efficacy of the uterine-administered progestin can be detected by a decrease in the LH level.
# as §2
# IGFBP-1 = assay: Gene expression analysis of marker genes in uterine tissue of rats carrying IUS (rods); format: in vivo; details: rat uterus, FIG. 3/4
# Procedure: as §1
# Ovary-resected female rats were treated with estradiol (E2) for three days (0.2 μg/day/animal, subcutaneous dosing). On day 4, an IUS (rod) was implanted into the right uterine horn of each animal. The left uterine horn remained untreated for internal comparison. Administration of E2 was continued with a daily dose of 0.1 μg/animal to ensure responsiveness of the uterus (maintaining progesterone-receptor expression) to progestins. Blood was taken for LH level measurements on days 4, 10 and 17. […]
# Gene expression analysis was carried out with from 50 ng to 200 ng of cDNA per reaction on an SDS7900HT Real.time PCR system (Applied Biosystems, Carlsbad, USA) using TaqMan probes (Applied Biosystems; IGFBP-1 Rn00565713_m1, Cyp26a1 Rn00590308_m1, PPIA Rn00690933_m1) and the Fast Blue qPCR MasterMix Plus (Eurogentec, Liège, Belgium; #RT-QP2X-03+FB). For relative quantification, cyclophilin A (PPIA) was used as an endogenous control. Relative expression levels were calculated according to the comparative delta delta CT method.
# [1] = In-vitro metabolic studies (liver); format: in vitro ADME; details: all in-vitro metabolic studies (liver)
# [2] = In vivo break-down in animal species; details: all animal species studied in vivo
# [3] = In vitro (liver) break-down for humans; format: in vitro ADME; details: human liver in vitro
# Procedure: The rapid in-vitro breakdown in the liver may also indicate rapid in-vivo breakdown, resulting in a very low systemic exposition of 18-methyl-15β,16β-methylene-19-nor-20-spirox-4-en-3-one and 18-Methyl-6α,7α,15β,16β-dimethylene-19-nor-20-spirox-4-en-3-one after administration through an IUS being calculated. The expected substance levels (Css=concentration at steady state) are calculated from the rate of release from the IUS divided by the clearance. Using a dose of 20 μg per day and woman, which corresponds to that of Mirena, gives a calculated systemic exposition (load) for 18-methyl-15β,16β-methylene-19-nor-20-spirox-4-en-3-one and 18-methyl-6α,7α,15β,16β-dimethylene-19-nor-20-spirox-4-en-3-one, which is over 30 times lower in comparison with Mirena®.
# human androgen receptor = target: T1, human androgen receptor (Homo sapiens, UniProt P10275); assay: hAR transactivation in PC3 cells stably transfected with hAR and MTV-luc reporter gene; format: cell-based; details: hAR, MTV-luc reporter
# T1 construct: expressed in transfected cells; host or cells: PC3 (human prostate carcinoma) cells, stably transfected with hAR and the MTV-luc reporter
# T1 sequence (P10275 1-920): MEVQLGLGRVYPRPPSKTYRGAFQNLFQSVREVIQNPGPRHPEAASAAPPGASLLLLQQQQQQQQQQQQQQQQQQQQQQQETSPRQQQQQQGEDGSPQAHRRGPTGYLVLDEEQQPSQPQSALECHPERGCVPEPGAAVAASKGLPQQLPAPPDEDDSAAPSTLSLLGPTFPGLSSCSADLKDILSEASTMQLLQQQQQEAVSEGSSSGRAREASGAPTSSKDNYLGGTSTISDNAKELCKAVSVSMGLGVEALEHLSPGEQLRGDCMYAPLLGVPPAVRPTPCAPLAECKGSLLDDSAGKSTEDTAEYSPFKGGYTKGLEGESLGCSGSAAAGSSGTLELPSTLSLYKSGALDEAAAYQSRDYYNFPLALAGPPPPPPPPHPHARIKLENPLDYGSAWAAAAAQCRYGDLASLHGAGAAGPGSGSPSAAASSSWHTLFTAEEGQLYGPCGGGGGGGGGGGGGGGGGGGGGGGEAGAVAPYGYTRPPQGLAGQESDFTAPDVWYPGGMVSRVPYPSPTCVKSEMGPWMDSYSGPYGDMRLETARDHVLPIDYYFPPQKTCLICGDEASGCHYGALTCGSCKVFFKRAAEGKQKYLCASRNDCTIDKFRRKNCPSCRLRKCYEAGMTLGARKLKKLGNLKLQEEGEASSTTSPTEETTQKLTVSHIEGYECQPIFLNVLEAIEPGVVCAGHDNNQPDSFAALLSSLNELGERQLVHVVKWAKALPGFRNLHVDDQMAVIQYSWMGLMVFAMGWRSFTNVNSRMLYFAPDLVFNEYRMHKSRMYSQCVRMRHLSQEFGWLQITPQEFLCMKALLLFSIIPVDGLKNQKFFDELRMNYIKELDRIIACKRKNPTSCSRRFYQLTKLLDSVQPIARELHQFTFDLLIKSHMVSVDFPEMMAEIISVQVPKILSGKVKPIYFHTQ
# Procedure: For this, different concentrations of the test substances were to cells with stable expression of the human androgen receptor, and activation of the androgen receptor can be detected via a reporter gene.
# For transactivation studies, PC3 (human prostate carcinoma) cells which have been stably transfected with hAR and the MTV-luc reporter gene were used. […] The cells were cultured at 37° C. and 5% CO2. The test medium corresponded to the culture medium, except that 10% FCS was replaced with 5% activated carbon-treated FCS (CCS). Cells were seeded in wells of a 96 well plate (“CulturPlate” from Packard #6005180) with 2×10^4 cells/well/200 μl of test medium. The cells were incubated with different concentrations of the test substances, and 80 μl of substrate were measured using the “steadylite HTS Reporter Gene Assay System” from Perkin Elmer.
# [4] = Mirena use; cited from earlier work
# [5] = dose range tested: compound A 0.6-10 μg per animal and day, compound B 1-45 μg/animal and day
Structure (SMILES),local efficacy by way of weight gain in the IUS-carrying uterine horn (uterus),LH decrease (systemic side effect) (luteinizing hormone (LH); 10 μg/animal and day dose),LH decrease (systemic side effect) (luteinizing hormone (LH); [5]),"rate of release from the IUS at which IGFBP-1 gene expression is induced, lower than with levonorgestrel (IGFBP-1)",break-down rate in in-vitro metabolic studies (liver) [1],break-down rate in vivo [2],break-down rate in vitro (liver) for humans [3],EC50 (human androgen receptor),average plasma levels of active ingredient [4]
"CC[C@]12CCC3C4CCC(=O)C=C4CCC3C1[C@@H]1C[C@@H]1[C@@]21CCCO1 (stereo partly drawn) [compound A, 18-methyl-15β,16β-methylene-19-nor-20-spirox-4-en-3-one]",dose-dependent local efficacy by way of weight gain,exception,no LH decrease,approx. 7 ×,very fast break-down rate,very fast break-down rate,Very rapid break-down rates,–,–
"CC[C@]12CCC3C4CCC(=O)C=C4C4CC4C3C1[C@@H]1C[C@@H]1[C@@]21CCCO1 (stereo partly drawn) [compound B, 18-methyl-6α,7α,15β,16β-dimethylene-19-nor-20-spirox-4-en-3-one]",dose-dependent local efficacy by way of weight gain,–,no LH decrease,–,very fast break-down rate,very fast break-down rate,Very rapid break-down rates,56 nM,–
C#C[C@]1(O)CC[C@H]2[C@@H]3CCC4=CC(=O)CC[C@@H]4[C@H]3CC[C@@]21CC [levonorgestrel],–,–,–,–,–,–,–,–,around 206 pg/ml

# — patent publication US20150119372A1, “APPLICATION OF 18-METHYL-15SS,16SS-METHYLENE-19-NOR-20-SPIROX-4-EN-3-ONE SYSTEMS IN THE TREATMENT OF MENORRHAGIA, AS WELL AS INTRAUTERINE SYSTEMS CONTAINING 18-METHYL-15SS,16SS-METHYLENE-19-NOR-20-SPIROX-4-EN-3-ONE FOR TREATING UTERINE BLEEDING DISORDERS” (BAYER PHARMA AKTIENGESELLSCHAFT, priority 2012, published 2015)
